Data: patent publication US9512065B2, “Polymorphs of N-[(R)-1-[(S)-1-(4-aminomethyl-benzylcarbamoyl)-2-phenyl-ethylcarbamoyl]-2-(4-ethoxy-phenyl)-ethyl]-benzamide hydrochloride” (Kalvista Pharmaceuticals Limited, priority 2012, dated 2016)
Counter-ions that a name gives are not always drawn.

Columns and labels:
[1] = Gravimetric vapour sorption (GVS); assay type: physicochemical
Procedure: Gravimetric Vapour Sorption
Sorption isotherms were obtained using a Hiden Isochema moisture sorption analyser (model IGAsorp), controlled by IGAsorp Systems Software V6.50.48. The sample was maintained at a constant temperature (25° C.) by the instrument controls. The humidity was controlled by mixing streams of dry and wet nitrogen, with a total flow of 250 ml·min-1. The instrument was verified for relative humidity content by measuring three calibrated Rotronic salt solutions (10-50-88%). The weight change of the sample was monitored as a function of humidity by a microbalance (accuracy +/−0.005 mg). A defined amount of sample was placed in a tared mesh stainless steel basket under ambient conditions. A full experimental cycle consisted of three scans (sorption, desorption and sorption) at a constant temperature (25° C.) and 10% RH intervals over a 0-90% range (60 minutes for each humidity level).

[2] = Storage stability at 40° C. and 75% relative humidity for 6 months; assay type: physicochemical
Excerpt: Further evidence of the suitability of the crystalline forms for pharmaceutical development is provided by the following stability data.

Human plasma kallikrein = Human plasma kallikrein (Homo sapiens (Human), UniProt P03952); experiment: Determination of the Ki for plasma kallikrein; assay type: biochemical; conditions: 37° C., fluorogenic substrate H-DPro-Phe-Arg-AFC; read-out: Ki (human Pkal)
Sequence of Human plasma kallikrein (P03952 391-638): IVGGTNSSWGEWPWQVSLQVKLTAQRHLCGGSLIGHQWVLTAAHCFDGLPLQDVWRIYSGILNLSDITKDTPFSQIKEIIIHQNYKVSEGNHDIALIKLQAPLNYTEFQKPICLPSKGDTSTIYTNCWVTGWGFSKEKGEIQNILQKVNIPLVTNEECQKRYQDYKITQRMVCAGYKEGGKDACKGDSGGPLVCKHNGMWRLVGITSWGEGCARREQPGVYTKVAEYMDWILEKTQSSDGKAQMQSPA
Sequence of Human plasma kallikrein (P03952 20-390 partner): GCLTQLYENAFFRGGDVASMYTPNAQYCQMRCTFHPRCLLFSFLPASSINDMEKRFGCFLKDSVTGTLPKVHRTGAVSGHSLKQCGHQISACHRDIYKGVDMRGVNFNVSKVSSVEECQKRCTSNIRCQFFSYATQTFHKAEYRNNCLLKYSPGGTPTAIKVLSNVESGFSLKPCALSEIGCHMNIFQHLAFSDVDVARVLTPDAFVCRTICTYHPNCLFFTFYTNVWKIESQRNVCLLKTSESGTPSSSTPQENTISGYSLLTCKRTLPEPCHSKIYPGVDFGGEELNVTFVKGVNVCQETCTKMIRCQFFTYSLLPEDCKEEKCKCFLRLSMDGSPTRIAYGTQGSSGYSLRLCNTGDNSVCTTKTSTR
Procedure: Determination of the Ki for Plasma Kallikrein
Plasma kallikrein inhibitory activity in vitro was determined using standard published methods (see e.g. Johansen et al., Int. J. Tiss. Reac. 1986, 8, 185; Shori et al., Biochem. Pharmacol., 1992, 43, 1209; Stürzebecher et al., Biol. Chem. Hoppe-Seyler, 1992, 373, 1025). Human plasma kallikrein (Protogen) was incubated at 37° C. with the fluorogenic substrate H-DPro-Phe-Arg-AFC and various concentrations of the test compound. Residual enzyme activity (initial rate of reaction) was determined by measuring the change in […] at 410 nm and the Ki value for the test compound was determined.

Human KLK1 = Human KLK1 (Homo sapiens (Human), UniProt P06870); experiment: Determination of the IC50 for KLK1; assay type: biochemical; conditions: 37° C., fluorogenic substrate H-DVal-Leu-Arg-AFC
Sequence of Human KLK1 (P06870 25-262): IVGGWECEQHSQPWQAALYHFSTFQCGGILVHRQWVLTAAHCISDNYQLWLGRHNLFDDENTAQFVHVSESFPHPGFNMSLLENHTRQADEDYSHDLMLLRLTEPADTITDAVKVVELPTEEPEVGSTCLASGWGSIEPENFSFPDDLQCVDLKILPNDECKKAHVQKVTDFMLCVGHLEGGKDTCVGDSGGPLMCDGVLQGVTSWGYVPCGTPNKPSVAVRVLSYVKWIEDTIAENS
Procedure: Determination of the IC50 for KLK1
Human KLK1 (Callbiochem) was incubated at 37° C. with the fluorogenic substrate H-DVal-Leu-Arg-AFC and various concentrations of the test compound. Residual enzyme activity (initial rate of reaction) was determined by measuring the change in optical absorbance at 410 nm and the IC50 value for the test compound was determined.

diabetic rats = conditions: cited from earlier work
Factor XIIa = Factor XIIa (Homo sapiens (Human), UniProt P00748); experiment: Determination of enzyme selectivity: Factor XIIa; assay type: biochemical; conditions: substrate at Km concentration
Sequence of Factor XIIa (P00748 373-615): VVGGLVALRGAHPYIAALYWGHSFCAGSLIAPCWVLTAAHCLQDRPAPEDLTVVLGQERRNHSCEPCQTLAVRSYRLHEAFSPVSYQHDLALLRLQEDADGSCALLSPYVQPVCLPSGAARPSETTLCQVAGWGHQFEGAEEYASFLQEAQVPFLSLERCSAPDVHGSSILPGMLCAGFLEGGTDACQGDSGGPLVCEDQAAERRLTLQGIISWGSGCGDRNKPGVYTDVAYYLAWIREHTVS
Excerpt: (§1) Determination of Enzyme Selectivity

[3] = Ocular and systemic pharmacokinetics following a single IVT dose; assay type: in vivo, rabbit; conditions: Dutch-belted rabbits
Procedure: A pharmacokinetic study of N—[(R)-1-[(S)-1-(4-aminomethyl-benzylcarbamoyl)-2-phenyl-ethylcarbamoyl]-2-(4-ethoxy-phenyl)-ethyl]-benzamide hydrochloride was performed to assess the ocular and systemic pharmacokinetics following a single IVT dose in pigmented (Dutch-belted) rabbits. […] Serial blood samples were collected in surviving rabbits.

Factor Xa = Factor Xa (Homo sapiens (Human), UniProt P00742); experiment: Determination of enzyme selectivity: Factor Xa; assay type: biochemical; conditions: substrate at Km concentration
Sequence of Factor Xa (P00742 235-488): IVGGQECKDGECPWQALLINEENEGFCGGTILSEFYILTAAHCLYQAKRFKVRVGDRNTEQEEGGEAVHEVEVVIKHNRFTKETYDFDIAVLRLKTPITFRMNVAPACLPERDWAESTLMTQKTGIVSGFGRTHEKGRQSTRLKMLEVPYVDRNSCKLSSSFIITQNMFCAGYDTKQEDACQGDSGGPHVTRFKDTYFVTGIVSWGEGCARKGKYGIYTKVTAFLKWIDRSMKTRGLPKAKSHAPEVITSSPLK
Sequence of Factor Xa (P00742 41-179 partner): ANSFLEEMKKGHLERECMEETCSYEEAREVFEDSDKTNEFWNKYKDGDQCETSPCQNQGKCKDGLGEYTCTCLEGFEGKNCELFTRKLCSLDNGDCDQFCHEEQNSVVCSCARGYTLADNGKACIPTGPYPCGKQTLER
Excerpt: as §1

thrombin = thrombin (Homo sapiens (Human), UniProt P00734); experiment: Determination of enzyme selectivity: thrombin; assay type: biochemical; conditions: substrate at Km concentration
Excerpt: as §1

[4] = tested on: CA-I stimulated RVP in Sprague Dawley rats; experiment: Carbonic anhydrase I induced retinal vascular permeability model; assay type: in vivo; conditions: rat
Procedure: Carbonic Anhydrase I Induced Retinal Vascular Permeability Model
After 30 mins, a second intravitreal injection (5 μL) of PBS or CA-I (200 ng/eye) was given. After 15 minutes, 10% sodium fluorescein was infused and retinal vascular permeability (RVP) was measured by vitreous fluorophotometry 75 minutes following the initial IVT injections. […] Intravitreal injection of N—[(R)-1-[(S)-1-(4-amino methyl-benzylcarbamoyl)-2-phenyl-ethylcarbamoyl]-2-(4-ethoxy-phenyl)-ethyl]-benzamide hydrochloride reduced RVP (stimulated by CA-I injection) by 53±21%.

SMILES: CCOc1ccc(C[C@@H](NC(=O)c2ccccc2)C(=O)N[C@@H](Cc2ccccc2)C(=O)NCc2ccc(CN)cc2)cc1 [Form 1, N—[(R)-1-[(S)-1-(4-aminomethyl-benzylcarbamoyl)-2-phenyl-ethylcarbamoyl]-2-(4-ethoxy-phenyl)-ethyl]-benzamide hydrochloride]
- hydration (GVS) ([1]; 25° C., sorption, desorption and sorption, 0-90% RH): reversible
- hygroscopicity ([1]; GVS data): absence of significant hygroscopicity
- increase in water content (GVS) ([1]; normal conditions, 20% to 80% relative humidity): only a relatively gradual increase
- chemical degradation on storage ([2]; 6 months): no significant chemical degradation
- purity (HPLC) on storage ([2]; 6 months): 99.8 % area
- change to the XRPD diffractogram on storage ([2]; 6 months, double polyethylene bags in polypropylene container): no change
- water content (Karl Fischer) on storage ([2]; after one month and thereafter up to 6 months): 2.5%-2.8%
- Ki (Human plasma kallikrein): 0.01 µM
- IC50 (Human KLK1): > 10 µM

SMILES: N=C(N)c1ccc(CNC(=O)c2cnn(Cc3ccccc3)c2)cc1 [ASP-440]
- retinal vascular permeability and retinal blood flow abnormalities (diabetic rats): ameliorated

SMILES: CCOc1ccc(C[C@@H](NC(=O)c2ccccc2)C(=O)N[C@@H](Cc2ccccc2)C(=O)NCc2ccc(CN)cc2)cc1 [N—[(R)-1-[(S)-1-(4-aminomethyl-benzylcarbamoyl)-2-phenyl-ethylcarbamoyl]-2-(4-ethoxy-phenyl)-ethyl]-benzamide hydrochloride]
- IC50 (Factor XIIa): > 10 µM
- decline in ocular tissue concentrations ([3]; single IVT 210 ng per eye, vitreous, retina/choroid, aqueous humour, over 7 days): minimal
- plasma concentrations following IVT administration ([3]; single bilateral IVT 210 ng per eye, all time points): below 1 ng/mL
- IC50 (Factor Xa): > 10 µM
- IC50 (thrombin): > 40 µM
- reduction of RVP stimulated by CA-I injection ([4]; intravitreal injection 5 μL of 1 μM, CA-I 200 ng/eye after 30 mins): 53±21%
- basal RVP ([4]; intravitreal injection of 1 μM alone (no CA-I), no effect compared to PBS alone, vitreous fluorophotometry at 75 minutes): 3.29±0.21
